Experimental data published in the supplement of paper PMC4862054.

What follows are compounds tested on MDA-MB-468 (assay: normalised response (% of control), CellTox Green; higher = less cell death (100 = DMSO, 0 = benzethonium chloride kill control)). Details: incubation time: 72 h.
Method in brief: (§1)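 Normalised signals at single concentrations make up the values. They come from breast cancer cell lines seeded (20 µl suspension) into 384-well plates with compound at 5 concentrations in 10-fold steps over a compound-specific 10,000-fold range, incubated 72 h, and read for CellTox Green fluorescence then CellTiter-Glo luminescence. Each plate was normalised to 0.1 % DMSO (100) and a positive kill control (0).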
Work on `COc1cccc2c1C(=O)c1c(O)c3c(c(O)c1C2=O)C[C@@](O)(C(C)=O)C[C@@H]3O[C@H]1C[C@H](N)[C@H](O)[C@H](C)O1` [Daunorubicin] (1000 nM) yielded a normalised response of 322%. `Cn1c(=O)c(F)c(Nc2ccc(I)cc2F)c2c(=O)n(C[C@@H](O)CO)cnc21` [TAK-733] (100 nM) showed a normalised response of 127%. `C[C@@H]1C=C2C(=O)O[C@@H]3CC[C@H](C1)[C@]23O` [Galiellalactone] (50000 nM) was tested, and the normalised response was 135%. `COc1ccc(C2=N[C@@H](c3ccc(Cl)cc3)[C@@H](c3ccc(Cl)cc3)N2C(=O)N2CCNC(=O)C2)c(OC(C)C)c1` [Nutlin-3] (1000 nM) was tested, and the normalised response was 108%. For `COC1=CC(c2cc3ccccc3[nH]2)=N/C1=C\c1[nH]c(C)cc1C` [Obatoclax] (10000 nM), the normalised response was 82.9%. `CN1CCN(c2ccc3nc(-c4c(N)c5c(F)cccc5[nH]c4=O)[nH]c3c2)CC1` [Dovitinib] (10000 nM) showed a normalised response of 126%. Compound `COc1ccc(C2=N[C@@H](c3ccc(Cl)cc3)[C@@H](c3ccc(Cl)cc3)N2C(=O)N2CCNC(=O)C2)c(OC(C)C)c1` [Nutlin-3] (10000 nM) has a normalised response of 107%. `CC(C)(C)c1cc(NC(=O)Nc2ccc(-c3cn4c(n3)sc3cc(OCCN5CCOCC5)ccc34)cc2)no1` [Quizartinib] (1000 nM) gave a normalised response of 174%. `COc1cccc2c1C(=O)c1c(O)c3c(c(O)c1C2=O)C[C@@](O)(C(C)=O)C[C@@H]3O[C@H]1C[C@H](N)[C@H](O)[C@H](C)O1` [Daunorubicin] (100 nM) gave a normalised response of 96.9%. In the case of `O=c1[nH]cc(F)c(=O)[nH]1` [Fluorouracil] (10000 nM), the normalised response is reported as -57.8%. In the case of `O=C(c1ccc(OCCN2CCCCC2)cc1)c1c(-c2ccc(O)cc2)sc2cc(O)ccc12` [Raloxifene] (10000 nM), the normalised response is reported as 82.7%. With `CC(C)(C)c1cc(NC(=O)Nc2ccc(-c3cn4c(n3)sc3cc(OCCN5CCOCC5)ccc34)cc2)no1` [Quizartinib] (100 nM) the normalised response was 139%. `CCS(=O)(=O)c1cccc(-c2cc(C(=O)NC3CCN(C)CC3)c(C)c3[nH]c4ncc(C)cc4c23)c1` [TAK-901] (100 nM) gave a normalised response of -31.9%. `O=c1[nH]c(=O)n([C@H]2C[C@H](O)[C@@H](CO)O2)cc1F` [Floxuridine] (10000 nM) showed a normalised response of 119%. Work on `Cn1cnc2c(F)c(Nc3ccc(Br)cc3F)c(C(=O)NOCCO)cc21` [MEK-162] (1000 nM) yielded a normalised response of 120%. `O=C(c1ccc(OCCN2CCCCC2)cc1)c1c(-c2ccc(O)cc2)sc2cc(O)ccc12` [Raloxifene] (1000 nM) gave a normalised response of 120%. `O=c1[nH]c(=O)n([C@H]2C[C@H](O)[C@@H](CO)O2)cc1F` [Floxuridine] (1000 nM) was tested, and the normalised response was 125%. Compound `CCCC(CCC)C(=O)O` [Valproic acid] (10000 nM) has a normalised response of 86.2%. In the case of `CS(=O)(=O)CCNCc1ccc(-c2ccc3ncnc(Nc4ccc(OCc5cccc(F)c5)c(Cl)c4)c3c2)o1` [Lapatinib] (1000 nM), the normalised response is reported as 84.8%. Compound `COC1=CC(c2cc3ccccc3[nH]2)=N/C1=C\c1[nH]c(C)cc1C` [Obatoclax] (1000 nM) has a normalised response of 107%.

The compounds below were run on MDA-MB-231 in the same assay as above. Details: incubation time: 72 h.
Method in brief: as §1
Work on `COc1cccc2c1C(=O)c1c(O)c3c(c(O)c1C2=O)C[C@@](O)(C(C)=O)C[C@@H]3O[C@H]1C[C@H](N)[C@H](O)[C@H](C)O1` [Daunorubicin] (1000 nM) yielded a normalised response of 127%. `Cn1c(=O)c(F)c(Nc2ccc(I)cc2F)c2c(=O)n(C[C@@H](O)CO)cnc21` [TAK-733] (100 nM) was tested, and the normalised response was 71.3%. Compound `C[C@@H]1C=C2C(=O)O[C@@H]3CC[C@H](C1)[C@]23O` [Galiellalactone] (50000 nM) has a normalised response of 121%. Compound `C[C@@H]1C=C2C(=O)O[C@@H]3CC[C@H](C1)[C@]23O` [Galiellalactone] (5000 nM) has a normalised response of 107%. For `COc1ccc(C2=N[C@@H](c3ccc(Cl)cc3)[C@@H](c3ccc(Cl)cc3)N2C(=O)N2CCNC(=O)C2)c(OC(C)C)c1` [Nutlin-3] (1000 nM), the normalised response was 104%. With `COC1=CC(c2cc3ccccc3[nH]2)=N/C1=C\c1[nH]c(C)cc1C` [Obatoclax] (10000 nM) the normalised response was 0.38%. For `COc1ccc(C2=N[C@@H](c3ccc(Cl)cc3)[C@@H](c3ccc(Cl)cc3)N2C(=O)N2CCNC(=O)C2)c(OC(C)C)c1` [Nutlin-3] (10000 nM), the normalised response was 108%. For `COC1=C2C[C@@H](C)C[C@H](OC)[C@H](O)[C@@H](C)/C=C(\C)[C@H](OC(N)=O)[C@@H](OC)/C=C\C=C(/C)C(=O)NC(=CC1=O)C2=O` [Geldanamycin] (1000 nM), the normalised response was 107%. Compound `CC(C)(C)c1cc(NC(=O)Nc2ccc(-c3cn4c(n3)sc3cc(OCCN5CCOCC5)ccc34)cc2)no1` [Quizartinib] (1000 nM) has a normalised response of 124%. `COc1cccc2c1C(=O)c1c(O)c3c(c(O)c1C2=O)C[C@@](O)(C(C)=O)C[C@@H]3O[C@H]1C[C@H](N)[C@H](O)[C@H](C)O1` [Daunorubicin] (100 nM) gave a normalised response of 104%. `O=c1[nH]cc(F)c(=O)[nH]1` [Fluorouracil] (10000 nM) was tested, and the normalised response was 105%. `O=C(c1ccc(OCCN2CCCCC2)cc1)c1c(-c2ccc(O)cc2)sc2cc(O)ccc12` [Raloxifene] (10000 nM) was tested, and the normalised response was 62.7%. Work on `CC(C)(C)c1cc(NC(=O)Nc2ccc(-c3cn4c(n3)sc3cc(OCCN5CCOCC5)ccc34)cc2)no1` [Quizartinib] (100 nM) yielded a normalised response of 116%. For `CCS(=O)(=O)c1cccc(-c2cc(C(=O)NC3CCN(C)CC3)c(C)c3[nH]c4ncc(C)cc4c23)c1` [TAK-901] (100 nM), the normalised response was 92.3%. `CS(=O)(=O)OCCCCOS(C)(=O)=O` [Busulfan] (100000 nM) gave a normalised response of 99.8%. With `O=c1[nH]c(=O)n([C@H]2C[C@H](O)[C@@H](CO)O2)cc1F` [Floxuridine] (10000 nM) the normalised response was 108%. With `Cn1cnc2c(F)c(Nc3ccc(Br)cc3F)c(C(=O)NOCCO)cc21` [MEK-162] (1000 nM) the normalised response was 39.1%. For `O=C(c1ccc(OCCN2CCCCC2)cc1)c1c(-c2ccc(O)cc2)sc2cc(O)ccc12` [Raloxifene] (1000 nM), the normalised response was 103%. `O=c1[nH]c(=O)n([C@H]2C[C@H](O)[C@@H](CO)O2)cc1F` [Floxuridine] (1000 nM) was tested, and the normalised response was 86%. `COC1=CC(c2cc3ccccc3[nH]2)=N/C1=C\c1[nH]c(C)cc1C` [Obatoclax] (1000 nM) was tested, and the normalised response was 64.3%.

Each compound was assayed on CAL-51 in the same assay as above. Details: incubation time: 72 h.
Method in brief: as §1
With `COc1cccc2c1C(=O)c1c(O)c3c(c(O)c1C2=O)C[C@@](O)(C(C)=O)C[C@@H]3O[C@H]1C[C@H](N)[C@H](O)[C@H](C)O1` [Daunorubicin] (1000 nM) the normalised response was 42.6%. For `Cn1c(=O)c(F)c(Nc2ccc(I)cc2F)c2c(=O)n(C[C@@H](O)CO)cnc21` [TAK-733] (100 nM), the normalised response was 80.9%. `C[C@@H]1C=C2C(=O)O[C@@H]3CC[C@H](C1)[C@]23O` [Galiellalactone] (50000 nM) was tested, and the normalised response was 96.6%. `C[C@@H]1C=C2C(=O)O[C@@H]3CC[C@H](C1)[C@]23O` [Galiellalactone] (5000 nM) showed a normalised response of 101%. `COC1=CC(c2cc3ccccc3[nH]2)=N/C1=C\c1[nH]c(C)cc1C` [Obatoclax] (10000 nM) showed a normalised response of -16.5%. Work on `CN1CCN(c2ccc3nc(-c4c(N)c5c(F)cccc5[nH]c4=O)[nH]c3c2)CC1` [Dovitinib] (10000 nM) yielded a normalised response of 118%. `COc1ccc(C2=N[C@@H](c3ccc(Cl)cc3)[C@@H](c3ccc(Cl)cc3)N2C(=O)N2CCNC(=O)C2)c(OC(C)C)c1` [Nutlin-3] (10000 nM) showed a normalised response of 41.2%. For `COC1=C2C[C@@H](C)C[C@H](OC)[C@H](O)[C@@H](C)/C=C(\C)[C@H](OC(N)=O)[C@@H](OC)/C=C\C=C(/C)C(=O)NC(=CC1=O)C2=O` [Geldanamycin] (1000 nM), the normalised response was 109%.
